# According to US9034909B2, “Use of organic compound for the treatment of Noonan Syndrome” (Novartis AG, priority 2011, dated 2015):
# Molecular target: MEK1 (Homo sapiens, UniProt Q02750)
# Test: isolated enzyme assay, MEK1 inhibition
# Format: biochemical
# Details: read-out: 50% inhibition (IC50) value
# From the text: The compound of Formula (I) is 6-(4-bromo-2-fluorophenylamino)-7-fluoro-3-methyl-3H-benzoimidazole-5-carboxylic acid (2-hydroxyethoxy)-amide (COMPOUND A). The compound of Formula (I) is described in PCT Application No. WO 03/077914, which is hereby incorporated by reference in its entirety hereto, and methods for its preparation have been described, for example, in Example 18 therein.
# MEK1, sequence (Q02750 whole entry, species assumed): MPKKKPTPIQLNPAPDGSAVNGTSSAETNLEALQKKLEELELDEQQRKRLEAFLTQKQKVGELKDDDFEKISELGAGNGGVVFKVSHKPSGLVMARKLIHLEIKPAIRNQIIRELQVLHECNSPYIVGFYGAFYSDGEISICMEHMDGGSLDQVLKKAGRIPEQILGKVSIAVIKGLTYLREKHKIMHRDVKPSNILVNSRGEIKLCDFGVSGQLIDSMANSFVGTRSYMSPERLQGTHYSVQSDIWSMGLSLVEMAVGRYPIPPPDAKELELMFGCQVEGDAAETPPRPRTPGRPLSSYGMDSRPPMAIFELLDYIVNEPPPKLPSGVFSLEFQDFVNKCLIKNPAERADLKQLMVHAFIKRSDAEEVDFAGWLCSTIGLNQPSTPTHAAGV
structure (smiles),measurement,value
"Cn1cnc2c(F)c(Nc3ccc(Br)cc3F)c(C(=O)NOCCO)cc21 [COMPOUND A, 6-(4-bromo-2-fluorophenylamino)-7-fluoro-3-methyl-3H-benzoimidazole-5-carboxylic acid (2-hydroxyethoxy)-amide]",IC50,12 nM
